Assay results from patent publication US7067257B2, “Thyrotropin-releasing hormone analogues and their therapeutic applications” (University of Florida, priority 2002, dated 2006).
Square brackets hold non-standard residues; d marks the D form. Peptide text beside a SMILES is read from it. pGlu = O=C1CC[C@@H](C(=O)O)N1

Tests used:
[1] = tested on: Swiss Webster mice; test: duration of analeptic action, antagonism of barbituate-induced anesthesia (Example 6); format: in vivo; conditions: 15 μmol/kg i.v.; pentobarbital injection at 60 minutes compared to after 10 minutes
Method: A pharmacological paradigm was used to assess the potency of the subject TRH analogues as central nervous system agents administered to animals in their prodrug forms in vivo. The antagonism on the barbituate-induced anesthesia was explored to survey the extent of activation of cholinergic neurons by the test compounds. Ten to sixteen Swiss Webster mice (30±2 g) were used in each group. Test compounds were dissolved in degassed DMSO. The vehicle alone (1.5 ml/kg body weight) or equimolar doses of TRH as control and prodrugs according to the present invention (15 μmol/kg body weight) were injected through the tail vein. After 10 minutes, each animal received an intraperitoneal (i.p.) injection of sodium pentobarbital at dose 60 mg/kg bodyweight. An increase in the time after which the animals were injected with TRH and a TRH analogue according to the present invention and after the cholinergic challenge was made was increased. The sleeping time was recorded as the time elapsed from the onset of the loss of righting reflex until the reflex was regained.

[2] = rat, human, in vivo; cited from earlier work
[3] = tested on: Swiss Webster mice; test: antagonism of barbiturate-induced anesthesia in mice (Example 9); format: in vivo; conditions: 10 μmole/kg i.v.; sodium pentobarbital 60 mg/kg i.p. after 10 minutes
Method: The antagonism of the barbiturate-induced anesthesia in mice was used to assess the increase in the access of the TRH analogues of the present invention to the central nervous system compared to the parent TRH-like tripeptide (pGlu-Glu-Pro-NH2). In this assay related to the analeptic activity of the TRH-like tripeptide, 10 to 18 Swiss Webster mice (30±2 g body weight) were used in each group. The vehicle alone (1.5 ml/kg body weight) or equimolar doses of TRH-like tripeptide as control and the TRH analogues of Formula I (10 μmole/kg body weight) were injected through the tail vein (i.v.). In another group of animals, the TRH-like tripeptide was administered at 10-times higher dose (100 μmol/kg) for comparison. After 10 minutes, each animal received an intraperitoneal (i.p.) injection of sodium pentobarbital at a dose of 60 mg/kg body weight. The sleeping time was recorded from the onset of the loss of righting reflex until the reflex was regained.
Based on measuring analeptic activity in the animal model selected.

[4] = in vitro stability in mouse brain homogenate; format: in vitro ADME; conditions: mouse brain homogenate (20% w/v)
Method: In vitro stability studies in mouse brain homogenate (20% w/v) were conducted at 100 μM concentration of TRH analogues of Formula I wherein R^3 is an ester moiety. Analytical reversed-phase gradient HPLC with UV detection (λ=214 nm) was used to monitor the decline in the concentration in the compound added. The half-lives (t1/2) were 20 and 22 minutes for the TRH analogues derived from primary alcohols and 25 minutes and 70 minute for TRH analogues derived from […]. TRH analogues of the subject invention in which R^3 is benzyl ester was discovered to be relatively stable in the tissue (t1/2>2 hours).

NC(=O)[C@@H]1CCCN1C(=O)[C@H](Cc1cnc[nH]1)NC(=O)[C@@H]1CCC(=O)N1 [TRH, L-pyroglutamyl-L-histidyl-L-prolinamide]
loss of central nervous system (analeptic) activity [1]: over 50% | biological half-life [2]: 4–6 minutes

[pGlu]-Glu-Pro-NH2 [TRH-like tripeptide]
sleeping time [3]: 65±3 minutes SEM

NC(=O)[C@@H]1CCCN1C(=O)[C@H](CCC(=O)OCc1ccccc1)NC(=O)[C@@H]1CCC(=O)N1 [benzyl ester] (HELM PEPTIDE1{[Glp].E.P.[am]}|CHEM1{[c1ccc(CO[*:1])cc1]}$PEPTIDE1,CHEM1,2:R3-1:R1$$$V2.0)
half-life at 100 μM [4]: > 2 h
